“Also recorded” adds a separate entry of the source.
Legend:
[1] = system: mouse NKG2D ligands (Rae-1); experiment: Quantitative real-time PCR of Rae1 transcripts in CT26 cells; format: cell-based; details: irinotecan 25 μg/ml or oxaliplatin 10 μg/ml
[2] = system: mouse MB49 bladder cancer cells; experiment: Surface exposure of calreticulin (CRT), immunofluorescence cytometry; format: cell-based; details: 4 h
[3] = system: tumor-reactive CD8^+ T cells; experiment: Flow cytometry of IFN-γ expression in CD8^+ T cells from tumor and draining lymph node, stimulation with MB49 cell lysates; format: in vivo, C57BL/6 mice
Excerpt: (§1) (FIG. 55A) In vivo depletion of tumor-infiltrating CD4^+CD25^+FoxP3^+ T cells by treatment of tumor-bearing mice with anti-CD4 antibody. C57BL/6 mice injected with 5×10^5 MB49 tumor cells s.c. were left untreated (control) or administered an anti-CD4 antibody (Clone GK1.5) i.p. at 5 d and 9 d following tumor challenge. CD4^+CD25^+FoxP3^+ T cells infiltrating tumors isolated from mice at d16 following tumor challenge were detected by flow cytometry. […] Flow cytometric analyses of peripheral blood mononuclear cells isolated from mice at d16 following tumor challenge determined the percentage of CD4^+ T cells or CD8^+ T cells among total mononuclear cells, and the percentage of CD4^+CD25^+FoxP3^+ T cells among total CD4^+ T cells. […] Tumor-reactive immune responses were determined by flow cytometric analyses of IFN-γ expression in CD8^+ T cells from the tumor and draining lymph node in response to in vitro stimulation with MB49 cell lysates. […] Tumor volume was monitored to determine the effect of depleting either CD4^+ T cells or CD8^+ T cells on the in vivo antitumor efficacy of doxorubicin. […]

MB49 tumors [4] = experiment: MB49 tumor volume, chemotherapy with or without anti-CD4 or anti-CD8 antibody; format: in vivo, C57BL/6 mice
Excerpt: as §1

[5] = system: human NKG2D ligands (MICA/MICB); experiment: Flow cytometry of cell surface MICA/B on HCT116 cells; format: cell-based; details: irinotecan 25 μg/ml, 16 h
CT26 tumors = experiment: CT26 tumor volume, irinotecan with or without NKG2D blocking, anti-CD4 and/or anti-CD8 antibody; format: in vivo, Balb/C mice; details: irinotecan alone
[6] = system: human SW780 bladder cancer cells; experiment: Surface exposure of calreticulin (CRT), immunofluorescence cytometry; format: cell-based; details: doxorubicin 10 μM, 4 h
MB49 tumor cells = experiment: Priming of tumor-reactive immune responses: IFN-γ production by draining lymph node (DLN) cells on in vitro re-challenge; format: in vivo, C57BL/6 mice; details: intratumoral doxorubicin 10 μg at d10 following tumor inoculation, established tumors
MB49 tumors [7] = experiment: Intratumoral doxorubicin in mice with pre-established MB49 tumors, tumor growth; format: in vivo, C57BL/6 mice

O=C1[O][Pt]2([NH][C@@H]3CCCC[C@H]3[NH]2)[O]C1=O [oxaliplatin]
time after which Rae1 mRNA began to decline [1]: 48 h

N.N.[Cl][Pt][Cl] [cisplatin]
CRT exposure compared to doxorubicin ([2]; equitoxic doses): less effective in increasing CRT exposure
IFN-γ expression in CD8^+ T cells ([3]; cisplatin alone, 0.5 mg/kg i.p. weekly×4 from d7): unable to induce a corresponding elevation of IFN-γ expression
growth of MB49 tumors (MB49 tumors [4]; cisplatin alone, 0.5 mg/kg i.p. weekly×4): partially inhibited tumor growth but failed to arrest tumor progression

CCc1c2c(nc3ccc(OC(=O)N4CCC(N5CCCCC5)CC4)cc13)-c1cc3c(c(=O)n1C2)COC(=O)[C@]3(O)CC [irinotecan]
time after which Rae1 mRNA began to decline [1]: 48 h
cell surface expression of MICA, MICB ([5]; HCT116 cells): upregulated
p53 dependence of upregulation of MICA/B ([5]; isogenic p53^+/+ and p53^−/− HCT116 cells): p53 is not required
growth of CT26 tumors (CT26 tumors; 50 mg/kg i.p. weekly×3 from d5): inhibited the growth of CT26 tumors
growth of CT26 tumors (CT26 tumors; 50 mg/kg i.p. weekly×3 from d7): only slowed tumor growth

COc1cccc2c1C(=O)c1c(O)c3c(c(O)c1C2=O)C[C@@](O)(C(=O)CO)C[C@@H]3O[C@H]1C[C@H](N)[C@H](O)[C@H](C)O1 [doxorubicin]
surface exposure of CRT ([2]; doxorubicin 10 μM): induced rapid surface exposure of CRT; also recorded: efficient translocation of CRT to the cell surface
surface exposure of CRT [6]: induced rapid surface exposure of CRT
IFN-γ secretion by DLN cells on re-challenge with MB49 cell lysates (MB49 tumor cells): failed to induce a corresponding increase in IFN-γ secretion
tumor growth (MB49 tumors [7]; intratumoral doxorubicin 10 μg on d3 following tumor inoculation): able to arrest tumor growth
tumor growth (MB49 tumors [7]; intratumoral doxorubicin 10 μg on d10 following tumor inoculation): failed to inhibit the progressive growth
IFN-γ^+CD8^+ T cells ([3]; doxorubicin alone, 5 mg/kg i.p. weekly×3 from d7, 5 mg/kg): IFN-γ^+CD8^+ T cells became evident; also recorded: tumor-reactive IFN-γ^+CD8^+ T cells were evident
growth of MB49 tumors (MB49 tumors [4]; doxorubicin alone, 5 mg/kg i.p. weekly×3): inhibited the growth of MB49 tumors but failed to arrest tumor progression

Source: patent US12295968B2, “Compositions and methods for targeted immunomodulatory antibodies and fusion proteins” (The Johns Hopkins University, priority 2010, dated 2025)
